Reference: patent US9649314B2, “Pyrimido[4,5-b]quinoline-4,5(3H,10H)-diones” (NOVARTIS AG, priority 2012, dated 2017)
Where two headings read alike, the source gives them in different places.

Tested on: CFTR-Y122X
Assay: CFTR-Y122X assay (dual reporter isogenic Hek293 cell lines, Renilla luminescence readthrough)
Format: cell-based
Details: Homo sapiens, HEK293
From the text: Activity of compounds of the present invention was examined in recombinant, dual reporter isogenic Hek293 cell lines (“CFTR-Y122X assay”). The engineered reporter constructs contained the 18 bp sequence stretch corresponding to a common Y122X PTC mutation in CFTR class I mutant patients (see Sermet-Gaudelus, BMC Medicine, 2007, 5(5)). Instead of a tyrosine (Y) in position 122 of the CFTR protein a TGA stop codon interrupts the open reading frame (Y122X) of the corresponding mRNA. This TGA stop codon triplet (followed by the pyrimidine base cytosine) is permissive to aminoglycoside mediated translational readthrough which served as positive control for high throughput screening. A corresponding TAA stop codon variant and a wildtype non mutated construct was used for confirmation and counter screening. The CFTR sequence was sandwiched between an eGFP reporter, and a triple myc tag sequence fused to a full length Renilla reporter. All sequences, including an intron containing one positioned pre-eGFP (b-globin intron) were cloned in frame. The corresponding expression constructs were stably expressed in the isogenic HEK-R4 cell host (Invitrogen Incorp.) and selected by blasticidin resistance. The isogenic integration of the construct minimizes gene dose effects and improves assay reproducibility. Stably integrated single cell derived clones were selected and characterized for aminoglycoside mediated readthrough. […] Readthrough of Y122X accumulates an intracellular localized fusion protein approximately 65.5 kDa in size as controlled by western blot analysis and immunofluorescence using an anti-renilla antibody. The eGFP reporter pre-PTC mutation serves as visual control for genetic stability of the screening clones and minimizes protein degradation of small fusion protein amounts. In the assay, compound concentration was 10 μM. In miniaturized 1536 well format 2000 cells were dispensed in 4 μl/well and incubated for 24 h at 37° C., 5% CO2. 40 nl compounds were placed on the cells with control wells containing 1 ul Paramomycin and 14.4 mM final concentration. Compounds were incubated for 24 h. Renilla Glo substrate (2.5 ul) was added and plates were centrifuged and processed for luminescence measurement using various readers. Activity calculation was done using the equation: A1 (%)=100*(S−NC)/(AC−NC) where AC, NC and S correspond to active controls (injection of Stimulation buffer=100% stimulation), neutral controls (buffer injection which Iloprost EC10) and screening samples (S). NC corresponds to 0% activity whereas AC is 100% activity (14 mM paromomycin). False positive artefacts were removed in confirmation and validation screening using the same assay format followed by counterscreening using the respective wildtype construct (w/o PTC mutation) cell model. Compounds were tested up to 100 μM compound concentration.

[1] = nonsense mutation suppression, 100% = 14 mM paromomycin, 24 h incubation, tested up to 100 μM, read-out: Amax [%]
[2] = nonsense mutation suppression, 24 h incubation
[3] = at the above dose ranges (up to 100 μM), read-out: suppression, % of paromomycin reference activity

Row | Compound | Emax [1] [%] | AC50 [2] [µM] | further results
1 | CC(C)c1nc2c(c(=O)c3cccc4c3n2CC4)c(=O)n1-c1ccccc1 [Example 1.27, 9-isopropyl-8-phenyl-1H-pyrimido[4,5-b]pyrrolo[3,2,1-ij]quinoline-6,7(2H,8H)-dione] | 271 | 6.8 | –
2 | Cn1c2ccccc2c(=O)c2c(=O)n(C3CCCCC3)c(-c3ccccc3Cl)nc21 [Example 2.38, 2-(2-chlorophenyl)-3-cyclohexyl-10-methylpyrimido[4,5-b]quinoline-4,5(3H,10H)-dione] | 21 | 10 | –
3 | Cn1c2ccccc2c(=O)c2c(=O)n(C3CCCC3)c(-c3ccc(Cl)cc3)nc21 [2-(4-chlorophenyl)-3-cyclopentyl-10-methylpyrimido[4,5-b]quinoline-4,5(3H,10H)-dione] | – | – | Emax [3]: < 5%
4 | Cn1c2ccccc2c(=O)c2c(=O)n(-c3cccc(Cl)c3)c(C3CCCCC3)nc21 [3-(3-chlorophenyl)-2-cyclohexyl-10-methylpyrimido[4,5-b]quinoline-4,5(3H,10H)-dione] | – | – | Emax [3]: < 5%
5 | Cn1c2ccccc2c(=O)c2c(=O)n(C3CCCC3)c(-c3ccc(F)cc3)nc21 [Example 2.33, 3-cyclopentyl-2-(4-fluorophenyl)-10-methylpyrimido[4,5-b]quinoline-4,5(3H,10H)-dione] | – | – | Emax at 100 µM (measured at 100 μM compound concentration (footnote d), read-out: Amax [%]: % nonsense mutation suppression relative to paromomycin reference activity): 18%
6 | CCCc1nc2c(c(=O)c3ccccc3n2C)c(=O)n1-c1cc(C)cc(C)c1 [Example 1.36, 3-(3,5-dimethylphenyl)-10-methyl-2-propylpyrimido[4,5-b]quinoline-4,5(3H,10H)-dione] | 9 | 1 | –
7 | COCCn1c2ccccc2c(=O)c2c(=O)n(-c3ccccc3)c(C(C)C)nc21 [Example 1.43, 2-isopropyl-10-(2-methoxyethyl)-3-phenylpyrimido[4,5-b]quinoline-4,5(3H,10H)-dione] | 9 | – | –
8 | CC(C)c1nc2c(c(=O)c3ccccc3n2C)c(=O)n1-c1ccccc1C(F)(F)F [Example 1.20, 2-isopropyl-10-methyl-3-(2-(trifluoromethyl)phenyl)pyrimido[4,5-b]quinoline-4,5(3H,10H)-dione] | 65 | 13.8 | –
9 | Cn1c2ccccc2c(=O)c2c(=O)n(C3CCCCC3)c(-c3ccc(Cl)cc3Cl)nc21 [3-cyclohexyl-2-(2,4-dichlorophenyl)-10-methylpyrimido[4,5-b]quinoline-4,5(3H,10H)-dione] | – | – | Emax [3]: < 5%
10 | CC(C)c1nc2c(c(=O)c3ccccc3n2C)c(=O)n1-c1ccccc1Cl [Example 1.16, 3-(2-chlorophenyl)-2-isopropyl-10-methylpyrimido[4,5-b]quinoline-4,5(3H,10H)-dione] | 200 | 9.3 | –
11 | CC1CC(c2nc3c(c(=O)c4ccccc4n3C)c(=O)n2-c2ccccc2)C1 (centres unmarked) [Example 1.6, 10-methyl-2-(3-methylcyclobutyl)-3-phenylpyrimido[4,5-b]quinoline-4,5(3H,10H)-dione] | 165 | 6.1 | –
12 | Cn1c2ccccc2c(=O)c2c(=O)n(C3CCCCCC3)c(-c3ccccc3)nc21 [Example 2.26, 3-cycloheptyl-10-methyl-2-phenylpyrimido[4,5-b]quinoline-4,5(3H,10H)-dione] | 97 | 11.1 | –
13 | CCCCCc1nc2c(c(=O)c3ccccc3n2C)c(=O)n1-c1cc(C)cc(C)c1 [Example 1.34, 3-(3,5-dimethylphenyl)-10-methyl-2-pentylpyrimido[4,5-b]quinoline-4,5(3H,10H)-dione] | 16 | 3.2 | –
14 | CC(C)Cn1c2ccccc2c(=O)c2c(=O)n(-c3ccccc3)c(C(C)C)nc21 [10-isobutyl-2-isopropyl-3-phenylpyrimido[4,5-b]quinoline-4,5(3H,10H)-dione] | – | – | Emax [3]: < 5%
15 | COCCCCc1nc2c(c(=O)c3ccccc3n2C)c(=O)n1-c1ccccc1 [Example 1.14, 2-(4-methoxybutyl)-10-methyl-3-phenylpyrimido[4,5-b]quinoline-4,5(3H,10H)-dione] | 18 | – | –
16 | Cn1c2ccccc2c(=O)c2c(=O)n(C3CCCCCC3)c(-c3cccc(Br)c3)nc21 [Example 2.50, 2-(3-bromophenyl)-3-cycloheptyl-10-methylpyrimido[4,5-b]quinoline-4,5(3H,10H)-dione] | 6 | 4.4 | –

Row | Compound | Emax [1] [%] | AC50 [2] [µM] | further results
17 | CCCc1nc2c(c(=O)c3ccccc3n2C)c(=O)n1C1CCCCC1 [Example 2.24, 3-cyclohexyl-10-methyl-2-propylpyrimido[4,5-b]quinoline-4,5(3H,10H)-dione] | 170 | 2.3 | –
18 | Cc1cc(C)cc(-n2c(C3CCCCC3)nc3c(c(=O)c4ccccc4n3C)c2=O)c1 [2-cyclohexyl-3-(3,5-dimethylphenyl)-10-methylpyrimido[4,5-b]quinoline-4,5(3H,10H)-dione] | – | – | Emax [3]: < 5%
19 | O=c1c2ccccc2[nH]c2nc(C3CCC3)n(-c3ccccc3)c(=O)c12 [Example 1.5, 2-cyclobutyl-3-phenylpyrimido[4,5-b]quinoline-4,5(3H,10H)-dione] | 170 | 1.1 | –
20 | Cn1c2ccccc2c(=O)c2c(=O)n(C3CCCCC3)c(C3CCCCC3)nc21 [2,3-dicyclohexyl-10-methylpyrimido[4,5-b]quinoline-4,5(3H,10H)-dione] | – | – | Emax [3]: < 5%
21 | C#Cc1ccc2c(c1)c(=O)c1c(=O)n(C3CCCC3)c(C(C)C)nc1n2C [Example 2.13, 3-cyclopentyl-7-ethynyl-2-isopropyl-10-methylpyrimido[4,5-b]quinoline-4,5(3H,10H)-dione] | 11 | – | –
22 | Cn1c2ccccc2c(=O)c2c(=O)n(C3CCCC3)c(-c3ccccc3)nc21 [Example 2.39, 3-cyclopentyl-10-methyl-2-phenylpyrimido[4,5-b]quinoline-4,5(3H,10H)-dione] | – | – | Emax at 50 µM (measured at 50 μM compound concentration (footnote e), read-out: Amax [%]: % nonsense mutation suppression relative to paromomycin reference activity): 31%
23 | CCCc1nc2c(c(=O)c3ccccc3n2C)c(=O)n1C1CCCCCC1 [Example 2.23, 3-cycloheptyl-10-methyl-2-propylpyrimido[4,5-b]quinoline-4,5(3H,10H)-dione] | 181 | 5 | –
24 | NC[C@@H]1O[C@H](O[C@H]2[C@@H](O)[C@H](O[C@@H]3[C@@H](O)[C@H](N)C[C@H](N)[C@H]3O[C@H]3O[C@H](CO)[C@@H](O)[C@H](O)[C@H]3N)O[C@@H]2CO)[C@H](N)[C@@H](O)[C@@H]1O [paromomycin, reference compound] | – | – | EC50 (clone pursued for HTS assay development, read-out: EC50 (readthrough response of the selected clone)): 1500 µM
25 | CC(C)c1nc2c(c(=O)c3ccccc3n2C)c(=O)n1C1CCCCC1 [Example 2.29, 3-cyclohexyl-2-isopropyl-10-methylpyrimido[4,5-b]quinoline-4,5(3H,10H)-dione] | 73 | 14.3 | –
26 | CC(C)c1nc2c(c(=O)c3ccccc3n2C)c(=O)n1-c1ccccc1 [Example 1.28, 2-isopropyl-10-methyl-3-phenylpyrimido[4,5-b]quinoline-4,5(3H,10H)-dione] | 361 | 7.6 | –
27 | CC(C)c1nc2c(c(=O)c3ccccc3n2C)c(=O)n1N1CCCCC1 [Example 2.8, 2-isopropyl-10-methyl-3-(piperidin-1-yl)pyrimido[4,5-b]quinoline-4,5(3H,10H)-dione] | 264 | 10.6 | –
28 | COc1cccc(-n2c(C(C)C)nc3c(c(=O)c4ccccc4n3C)c2=O)c1 [Example 1.22, 2-isopropyl-3-(3-methoxyphenyl)-10-methylpyrimido[4,5-b]quinoline-4,5(3H,10H)-dione] | 23 | 1.9 | –
29 | C=CCn1c2ccccc2c(=O)c2c(=O)n(C3CCCC3)c(C(C)C)nc21 [Example 2.1, 10-allyl-3-cyclopentyl-2-isopropylpyrimido[4,5-b]quinoline-4,5(3H,10H)-dione] | 102 | 21 | –
30 | CC(C)c1nc2c(c(=O)c3cc(F)ccc3n2C)c(=O)n1-c1ccccc1 [Example 1.23, 7-fluoro-2-isopropyl-10-methyl-3-phenylpyrimido[4,5-b]quinoline-4,5(3H,10H)-dione] | 139 | 13.4 | –
31 | COc1cc(-c2nc3c(c(=O)c4ccccc4n3C)c(=O)n2C2CCCCCC2)cc(OC)c1OC [Example 2.42, 3-cycloheptyl-10-methyl-2-(3,4,5-trimethoxyphenyl)pyrimido[4,5-b]quinoline-4,5(3H,10H)-dione] | 18 | 10.7 | –
